# Test results taken from ChEMBL document CHEMBL5137133, “Effects of the Anthocyanin Hirsutidin on Gastric Ulcers: Improved Healing through Antioxidant Mechanisms” (J Nat Prod, 2022).
# Calls of active or inactive are those of the source. The rule behind the calls is not given here.
# What was measured:
# Rattus norvegicus [1] = experiment: Anti-ulcer activity in Wistar rat model of ethanol-induced gastric ulcer assessed as attenuation of TNFalpha level at 10 to 20 mg/kg, po administered once daily for 7 days followed by ethanol injection after 1 hr post last dose and measured after 4 hrs by ELISA; type: functional; conditions: dose 10-20 mg/kg, time 173 hrs
# [2] = Acute toxicity in po dosed mouse assessed as morbidity; type: organism-based; conditions: in vivo
# [3] = Acute toxicity in po dosed mouse assessed as mortality; type: organism-based; conditions: in vivo
# Rattus norvegicus [4] = experiment: Anti-ulcer activity in Wistar rat model of ethanol-induced gastric ulcer assessed as increase in gastric pH at 10 mg/kg, po administered once daily for 7 days followed by ethanol injection after 1 hr post last dose and measured after 4 hrs; type: functional; conditions: time 173 hrs
# Rattus norvegicus [5] = experiment: Anti-ulcer activity in Wistar rat model of ethanol-induced gastric ulcer assessed as increase in gastric pH at 20 mg/kg, po administered once daily for 7 days followed by ethanol injection after 1 hr post last dose; type: functional; conditions: time 173 hrs
# Rattus norvegicus [6] = experiment: Anti-ulcer activity in Wistar rat model of ethanol-induced gastric ulcer assessed as reduction in total acidity levels at 10 to 20 mg/kg, po administered once daily for 7 days followed by ethanol injection after 1 hr post last dose and measured after 4 hrs; type: functional; design: scale not given: the % may be the effect or the level left; conditions: dose 10-20 mg/kg, time 173 hrs
# Rattus norvegicus [7] = experiment: Anti-ulcer activity in Wistar rat model of ethanol-induced gastric ulcer assessed as reduction in ulcer score index at 10 to 20 mg/kg, po administered once daily for 7 days followed by ethanol injection after 1 hr post last dose and measured after 4 hrs; type: functional, organism-based; conditions: dose 10-20 mg/kg, time 173.0 hrs
# Rattus norvegicus [8] = experiment: Anti-ulcer activity in Wistar rat model of ethanol-induced gastric ulcer assessed as restoration of endogenous GSH levels at 10 to 20 mg/kg, po administered once daily for 7 days followed by ethanol injection after 1 hr post last dose and measured after 4 hrs by Ellman's method; type: functional, organism-based; conditions: dose 10-20 mg/kg, time 173.0 hrs
# Rattus norvegicus [9] = experiment: Anti-ulcer activity in Wistar rat model of ethanol-induced gastric ulcer assessed as restoration of endogenous SOD levels at 10 to 20 mg/kg, po administered once daily for 7 days followed by ethanol injection after 1 hr post last dose and measured after 4 hrs; type: functional, organism-based; conditions: dose 10-20 mg/kg, time 173.0 hrs
# Rattus norvegicus [10] = experiment: Anti-ulcer activity in Wistar rat model of ethanol-induced gastric ulcer assessed as restoration of endogenous CAT levels at 10 to 20 mg/kg, po administered once daily for 7 days followed by ethanol injection after 1 hr post last dose and measured after 4 hrs by H2O2 decomposition assay; type: functional, organism-based; conditions: dose 10-20 mg/kg, time 173.0 hrs
# Rattus norvegicus [11] = experiment: Anti-ulcer activity in Wistar rat model of ethanol-induced gastric ulcer assessed as reduction in MDA levels at 10 to 20 mg/kg, po administered once daily for 7 days followed by ethanol injection after 1 hr post last dose and measured after 4 hrs by Wills method; type: functional; design: scale not given: the % may be the effect or the level left; conditions: dose 10-20 mg/kg, time 173 hrs
# Rattus norvegicus [12] = experiment: Anti-ulcer activity in Wistar rat model of ethanol-induced gastric ulcer assessed as reduction in MPO levels at 10 to 20 mg/kg, po administered once daily for 7 days followed by ethanol injection after 1 hr post last dose and measured after 4 hrs; type: functional, organism-based; conditions: dose 10-20 mg/kg, time 173.0 hrs
# Rattus norvegicus [13] = experiment: Anti-ulcer activity in Wistar rat model of ethanol-induced gastric ulcer assessed as increase in PGE2 levels at 10 to 20 mg/kg, po administered once daily for 7 days followed by ethanol injection after 1 hr post last dose and measured after 4 hrs by ELISA; type: functional, organism-based; conditions: dose 10-20 mg/kg, time 173.0 hrs
# Rattus norvegicus [14] = experiment: Anti-ulcer activity in Wistar rat model of ethanol-induced gastric ulcer assessed as protection of NO depletion at 10 to 20 mg/kg, po administered once daily for 7 days followed by ethanol injection after 1 hr post last dose and measured after 4 hrs by ELISA; type: functional; conditions: dose 10-20 mg/kg, time 173 hrs
# Rattus norvegicus [15] = experiment: Anti-ulcer activity in Wistar rat model of ethanol-induced gastric ulcer assessed as attenuation of AST level at 10 to 20 mg/kg, po administered once daily for 7 days followed by ethanol injection after 1 hr post last dose and measured after 4 hrs by ELISA; type: functional; conditions: dose 10-20 mg/kg, time 173 hrs
# Rattus norvegicus [16] = experiment: Anti-ulcer activity in Wistar rat model of ethanol-induced gastric ulcer assessed as attenuation of ALT level at 10 to 20 mg/kg, po administered once daily for 7 days followed by ethanol injection after 1 hr post last dose and measured after 4 hrs by ELISA; type: functional; conditions: dose 10-20 mg/kg, time 173 hrs
# Rattus norvegicus [17] = experiment: Anti-ulcer activity in Wistar rat model of ethanol-induced gastric ulcer assessed as attenuation of ALP level at 10 to 20 mg/kg, po administered once daily for 7 days followed by ethanol injection after 1 hr post last dose and measured after 4 hrs by ELISA; type: functional; conditions: dose 10-20 mg/kg, time 173 hrs
# Rattus norvegicus [18] = experiment: Anti-ulcer activity in Wistar rat model of ethanol-induced gastric ulcer assessed as reduction in serum IL-1beta level at 10 to 20 mg/kg, po administered once daily for 7 days followed by ethanol injection after 1 hr post last dose and measured after 4 hrs by ELISA; type: functional, organism-based; conditions: dose 10-20 mg/kg, time 173.0 hrs
# Rattus norvegicus [19] = experiment: Anti-ulcer activity in Wistar rat model of ethanol-induced gastric ulcer assessed as reduction in serum IL-6 level at 10 to 20 mg/kg, po administered once daily for 7 days followed by ethanol injection after 1 hr post last dose and measured after 4 hrs by ELISA; type: functional, organism-based; conditions: dose 10-20 mg/kg, time 173.0 hrs
# Rattus norvegicus [20] = experiment: Anti-ulcer activity in Wistar rat model of ethanol-induced gastric ulcer assessed as protection against gastric tissue damages at 10 to 20 mg/kg, po administered once daily for 7 days followed by ethanol injection after 1 hr post last dose and measured after 4 hrs by ELISA; type: functional, organism-based; conditions: dose 10-20 mg/kg, time 173.0 hrs
smiles,measurement,setting,value
COc1cc(O)c2cc(O)c(-c3cc(OC)c(O)c(OC)c3)[o+]c2c1,Activity,Rattus norvegicus [1],27.59%
same,Activity,[2],Non-Toxic
same,Activity,[3],Non-Toxic
same,pH,Rattus norvegicus [4],7.17
same,pH,Rattus norvegicus [5],6.36
same,Activity,Rattus norvegicus [6],37.76%
same,Activity,Rattus norvegicus [7],Active
same,Activity,Rattus norvegicus [8],Active
same,Activity,Rattus norvegicus [9],Active
same,Activity,Rattus norvegicus [10],Active
same,Activity,Rattus norvegicus [11],49.25%
same,Activity,Rattus norvegicus [12],Active
same,Activity,Rattus norvegicus [13],Active
same,Activity,Rattus norvegicus [14],85.1%
same,Activity,Rattus norvegicus [15],35.3%
same,Activity,Rattus norvegicus [16],38.85%
same,Activity,Rattus norvegicus [17],47.68%
same,Activity,Rattus norvegicus [18],Active
same,Activity,Rattus norvegicus [19],Active
same,Activity,Rattus norvegicus [20],Active
